Patent publication US20240174637A1, “DEGRADERS OF GRK2 AND USES THEREOF” (Sonata Therapeutics, Inc., priority 2021, published 2024)

Legend:
GRK2 [1] = target: T1, GRK2 (Homo sapiens, UniProt P25098); experiment: Second ADPGlo GRK2 Inhibition Assay (Example 3); type: biochemical; conditions: ADP-Glo, 20 μM ATP; read-out: Second ADPGlo Enzymatic GRK2 Assay: IC50 (nM) (Example 3)
T1 sequence (P25098 1-689): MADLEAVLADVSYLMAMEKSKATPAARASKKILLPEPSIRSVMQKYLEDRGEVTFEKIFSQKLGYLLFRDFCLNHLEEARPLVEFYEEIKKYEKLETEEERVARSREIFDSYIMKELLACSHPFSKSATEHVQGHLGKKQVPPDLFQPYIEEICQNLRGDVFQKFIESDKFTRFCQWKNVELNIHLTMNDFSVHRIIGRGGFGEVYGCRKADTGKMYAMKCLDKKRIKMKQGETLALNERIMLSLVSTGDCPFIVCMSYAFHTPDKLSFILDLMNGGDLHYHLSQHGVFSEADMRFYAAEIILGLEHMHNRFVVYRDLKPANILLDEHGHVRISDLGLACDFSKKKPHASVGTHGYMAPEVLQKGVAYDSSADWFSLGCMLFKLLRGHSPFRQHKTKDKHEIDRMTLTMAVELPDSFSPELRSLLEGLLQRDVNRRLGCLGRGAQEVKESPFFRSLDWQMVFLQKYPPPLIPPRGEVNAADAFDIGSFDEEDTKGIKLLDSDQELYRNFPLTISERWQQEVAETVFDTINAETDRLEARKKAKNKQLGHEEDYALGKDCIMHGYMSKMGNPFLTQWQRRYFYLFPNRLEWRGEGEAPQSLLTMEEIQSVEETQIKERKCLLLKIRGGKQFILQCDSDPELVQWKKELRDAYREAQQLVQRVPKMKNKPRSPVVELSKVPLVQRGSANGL
Description: Assay: GRK2 (2 nM) was incubated with ATP (20 μM) and GRKtide (1.2 mg/mL) in 11 μL of assay buffer (see above) for 180 min at room temperature. Compounds were dissolved in 100% DMSO, serially diluted 3.16-fold from 100 μM with 10 concentration points and transferred as 100× into assay plate (final compounds concentration in the reaction plate from 1 μM).
Materials: GRK2 was purchased from SignalChem (Cat #A14-10G, Lot #X645-3). Substrate GRKtide was from SignalChem (Cat #G46-58, Lot #R339-6). ADP-Glo Kinase Assay from Promega (Cat #V9102). Assay buffer consisted of 20 mM HEPES (pH7.5), 20 mM MgCl2, 0.01% Tween-20, 0.05 mM DDT. 384-well white plates were from Corning (Cat #4513).
HTS protocol: Add 5.5 μL of 2× substrate-enzyme mix into all columns except of 1-2 and 24 of reaction plate. Spin 15 seconds at 200 g. Transfer 1 ul of compounds from the plate with serial dilutions (384 well plate with 22 uL of compound in columns 3-22/DMSO solution 1-2,23-24) to Dilution plate (384 well plate with 49 uL of buffer with 2×40 μM ATP). After mixing transfer 5.5 ul from Dilution plate to Reaction plate (to 5.5 μL of 2× substrate-enzyme mix). Spin 15 seconds at 200 g and incubate for 180 min at room temperature with sealing. Add 3 μL ADP-Glo reagent to all the wells. Spin 15 seconds at 200 g and incubate for 40 min at room temperature. Add 6 μL Detection solution to all the wells. Incubate for 30 min at room temperature. Read plate using ClarioStar Plus (BMG).
Data Analysis: Data were analyzed in GraphPad Prism 5.0.2. Each HTS plate contains compounds in columns 3-22, controls (enzyme, no compound) in column 23, and blanks (no enzyme) in columns 2. HTS percent inhibition was calculated for each compound from the signal in luminescence units and the mean of the plate controls and the mean of the plate blanks using the following equation: % Inhibition=100*(1-(signal-blank mean)/(control mean-blank mean)).

GRK2 [2] = target: T1, GRK2; experiment: GRK2 Degradation Assay and Western Blot in PAXF1657 cells; type: cell-based; design: endogenous in cells; host or cells: PAXF1657; conditions: for inhibition at 0.3 µM: read-out: % GRK2 degradation at 0.3 uM in PAXF1657 EV (24 hrs); for inhibition at 1 µM: read-out: % GRK2 degradation at 1 uM in PAXF1657 EV (24 hrs); for inhibition at 3 µM: read-out: % GRK2 degradation at 3 uM in PAXF1657 EV (24 hrs)
Outline: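 PAXF1657 cells grown to 70% confluency, then treated with compounds at 0–10 μM for 6 to 24 h at 37 °C. Lysates in PBS with 1% NP40 run on SDS-PAGE. GRK2 protein detected by western blot with β-actin as loading reference, using ECL chemiluminescence.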

PAXF1657 EV = experiment: 7-day cellular proliferation assay (CellTiter-Glo), PAXF1657 EV; type: cell-based; conditions: 168 h, 7-day, read-out: 7-day proliferation assay: IC50 GeoMean (uM) [Cell Line: PAXF1657 EV]
Outline: (§1)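 Seven-day growth in PAXF1657 lines engineered for GRK2 overexpression or knockout, measured by CellTiter-Glo; compounds tested at 30 μM-0.0002 μM final and replenished once at day 3.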

PAXF1657 KO Clone #4 = experiment: 7-day cellular proliferation assay (CellTiter-Glo), PAXF1657 KO Clone #4; type: cell-based; conditions: 168 h, 7-day, read-out: 7-day proliferation assay: IC50 GeoMean (uM) [Cell Line: PAXF1657 KO Clone #4]
Outline: as §1

## Cc1ncsc1-c1ccc(CNC(=O)[C@@H]2C[C@@H](O)CN2C(=O)[C@@H](NC(=O)CCCc2cn(CCCCCCCOc3cccc(CNC(=O)c4cccc(NCc5nnc(-c6ccncn6)n5C)c4)c3)nn2)C(C)(C)C)cc1 [Compound D83]
GRK2 [1]
  IC50: < 100 nM
GRK2 [2]; PAXF1657 EV, 24 hrs
  inhibition at 0.3 µM: 2%
  inhibition at 1 µM: 25%
  inhibition at 3 µM: 39%
PAXF1657 EV
  IC50: 1 to 10 µM
PAXF1657 KO Clone #4
  IC50: > 10 µM

## Cn1c(CNc2cccc(C(=O)NCc3cccc(OCCCCCCn4cc(CCCCC(=O)Nc5cccc6c5CN(C5CCC(=O)NC5=O)C6=O)nn4)c3)c2)nnc1-c1ccncn1 (centres unmarked) [Compound D62]
GRK2 [1]
  IC50: < 100 nM
GRK2 [2]; PAXF1657 EV, 24 hrs
  inhibition at 0.3 µM: 35%
  inhibition at 1 µM: 56%
  inhibition at 3 µM: 75%
PAXF1657 EV
  IC50: > 10 µM
PAXF1657 KO Clone #4
  IC50: > 10 µM

## Cc1ncsc1-c1ccc(CNC(=O)[C@@H]2C[C@@H](O)CN2C(=O)[C@@H](NC(=O)CCCCCOCCOCCOCCCCCCOc2cccc(CNC(=O)c3cccc(NCc4nnc(-c5ccncn5)n4C)c3)c2)C(C)(C)C)cc1 [Compound D99]
GRK2 [1]
  IC50: < 100 nM
GRK2 [2]; PAXF1657 EV, 24 hrs
  inhibition at 1 µM: 44%
  inhibition at 3 µM: 13%
PAXF1657 EV
  IC50: < 1 µM
PAXF1657 KO Clone #4
  IC50: 1 to 10 µM

## Cc1ncsc1-c1ccc(CNC(=O)[C@@H]2C[C@@H](O)CN2C(=O)[C@@H](NC(=O)CCCCc2cn(CCCCCCCOc3cccc(CNC(=O)c4cccc(NCc5nnc(-c6ccncn6)n5C)c4)c3)nn2)C(C)(C)C)cc1 [Compound D82]
GRK2 [1]
  IC50: < 100 nM
GRK2 [2]; PAXF1657 EV, 24 hrs
  inhibition at 0.3 µM: -1%
  inhibition at 1 µM: 28%
  inhibition at 3 µM: 57%
PAXF1657 EV
  IC50: < 1 µM
PAXF1657 KO Clone #4
  IC50: > 10 µM

## Cc1ncsc1-c1ccc(CNC(=O)[C@@H]2C[C@@H](O)CN2C(=O)[C@@H](NC(=O)CCCCCCOc2cccc(CNC(=O)c3cccc(NCc4nnc(-c5ccncn5)n4C)c3)c2)C(C)(C)C)cc1 [Compound D96]
GRK2 [1]
  IC50: < 100 nM
GRK2 [2]; PAXF1657 EV, 24 hrs
  inhibition at 0.3 µM: 19%
  inhibition at 1 µM: 31%
  inhibition at 3 µM: 6%
PAXF1657 EV
  IC50: 1 to 10 µM
PAXF1657 KO Clone #4
  IC50: > 10 µM

## Cn1c(CNc2cccc(C(=O)NCc3cccc(OCCCCCCOCCOCCOCCCC(=O)Nc4cccc5c4CN(C4CCC(=O)NC4=O)C5=O)c3)c2)nnc1-c1ccncn1 (centres unmarked) [Compound D56]
GRK2 [1]
  IC50: < 100 nM
GRK2 [2]; PAXF1657 EV, 24 hrs
  inhibition at 0.3 µM: 25%
  inhibition at 1 µM: 52%
  inhibition at 3 µM: 64%
PAXF1657 EV
  IC50: 1 to 10 µM
PAXF1657 KO Clone #4
  IC50: > 10 µM

## Cn1c(CNc2cccc(C(=O)NCc3ccc(OCCCCCCOCCOCCOCCCCCC(=O)Nc4cccc5c4CN(C4CCC(=O)NC4=O)C5=O)cc3)c2)nnc1-c1ccncn1 (centres unmarked) [Compound D65]
GRK2 [1]
  IC50: < 100 nM
GRK2 [2]; PAXF1657 EV, 24 hrs
  inhibition at 0.3 µM: 36%
  inhibition at 1 µM: 64%
  inhibition at 3 µM: 67%
PAXF1657 EV
  IC50: < 1 µM
PAXF1657 KO Clone #4
  IC50: > 10 µM

## COc1cc(OCCNC(=O)CCOCCOCCOCCNC(=O)Nc2cccc3c2CN(C2CCC(=O)NC2=O)C3=O)ccc1CNC(=O)c1cccc(NCc2nnc(-c3ccncn3)n2C)c1 (centres unmarked) [Compound D68]
GRK2 [1]
  IC50: > 1000 nM

## Cn1c(CNc2cccc(C(=O)NCc3cccc(OCCCCCCCn4cc(CCCCC(=O)Nc5cccc6c5CN(C5CCC(=O)NC5=O)C6=O)nn4)c3)c2)nnc1-c1ccncn1 (centres unmarked) [Compound D60]
GRK2 [1]
  IC50: < 100 nM
GRK2 [2]; PAXF1657 EV, 24 hrs
  inhibition at 0.3 µM: -3%
  inhibition at 1 µM: 13%
  inhibition at 3 µM: 69%
PAXF1657 EV
  IC50: > 10 µM
PAXF1657 KO Clone #4
  IC50: > 10 µM

## Cn1c(CNc2cccc(C(=O)NCc3cccc(OCCCCCCOCCOCCCCCC(=O)Nc4cccc5c4CN(C4CCC(=O)NC4=O)C5=O)c3)c2)nnc1-c1ccncn1 (centres unmarked) [Compound D52]
GRK2 [1]
  IC50: < 100 nM

## COc1cc(OCC(=O)NCCOCCOCC(=O)N[C@H](C(=O)N2C[C@H](O)C[C@H]2C(=O)NCc2ccc(-c3scnc3C)cc2)C(C)(C)C)ccc1CNC(=O)c1cccc(NCc2nnc(-c3ccncn3)n2C)c1 [Compound D95]
GRK2 [1]
  IC50: < 100 nM

## Cc1ncsc1-c1ccc(CNC(=O)[C@@H]2C[C@@H](O)CN2C(=O)[C@@H](NC(=O)CCCOCCOCCOCCCCCCOc2cccc(CNC(=O)c3cccc(NCc4nnc(-c5ccncn5)n4C)c3)c2)C(C)(C)C)cc1 [Compound D77]
GRK2 [1]
  IC50: < 100 nM
GRK2 [2]; PAXF1657 EV, 24 hrs
  inhibition at 0.3 µM: -4%
  inhibition at 1 µM: -1%
  inhibition at 3 µM: -7%
PAXF1657 EV
  IC50: < 1 µM
PAXF1657 KO Clone #4
  IC50: > 10 µM

## Cc1ncsc1-c1ccc(CNC(=O)[C@@H]2C[C@@H](O)CN2C(=O)[C@@H](NC(=O)CCCOc2cccc(CNC(=O)c3cccc(NCc4nnc(-c5ccncn5)n4C)c3)c2)C(C)(C)C)cc1 [Compound D97]
GRK2 [1]
  IC50: < 100 nM
GRK2 [2]; PAXF1657 EV, 24 hrs
  inhibition at 1 µM: 11%
PAXF1657 EV
  IC50: > 10 µM
PAXF1657 KO Clone #4
  IC50: 1 to 10 µM

## Cc1ncsc1-c1ccc(CNC(=O)[C@@H]2C[C@@H](O)CN2C(=O)[C@@H](NC(=O)CCCCCOCCOCCCCCCOc2cccc(CNC(=O)c3cccc(NCc4nnc(-c5ccncn5)n4C)c3)c2)C(C)(C)C)cc1 [Compound D76]
GRK2 [1]
  IC50: < 100 nM

## Cc1ncsc1-c1ccc(CNC(=O)[C@@H]2C[C@@H](O)CN2C(=O)[C@@H](NC(=O)COCCCOCCCCCOc2cccc(CNC(=O)c3cccc(NCc4nnc(-c5ccncn5)n4C)c3)c2)C(C)(C)C)cc1 [Compound D85, (2S,4R)-1-((S)-3,3-dimethyl-2-(2-(3-((5-(3-((3-(((4-methyl-5-(pyrimidin-4-yl)-4H-1,2,4-triazol-3-yl)methyl)amino)benzamido)methyl)phenoxy)pentyl)oxy)propoxy)acetamido)butanoyl)-4-hydroxy-N-(4-(4-methylthiazol-5-yl)benzyl)pyrrolidine-2-carboxamide]
GRK2 [1]
  IC50: < 100 nM
GRK2 [2]; PAXF1657 EV, 24 hrs
  inhibition at 0.3 µM: 17%
  inhibition at 1 µM: 34%
  inhibition at 3 µM: 30%
PAXF1657 EV
  IC50: 1 to 10 µM
PAXF1657 KO Clone #4
  IC50: > 10 µM

## Cn1c(CNc2cccc(C(=O)NCc3cccc(OCCCCCCOCCOCCOCCCCCC(=O)Nc4cccc5c4CN(C4CCC(=O)NC4=O)C5)c3)c2)nnc1-c1ccncn1 (centres unmarked) [Compound D73]
GRK2 [1]
  IC50: < 100 nM
GRK2 [2]; 0.03 uM, PAXF1657 EV, 24 hrs
  % GRK2 degradation at 0.03 uM in PAXF1657 EV (24 hrs): 15%
GRK2 [2]; 0.1 uM, PAXF1657 EV, 24 hrs
  % GRK2 degradation at 0.1 uM in PAXF1657 EV (24 hrs): 28%
GRK2 [2]; PAXF1657 EV, 24 hrs
  inhibition at 0.3 µM: 48%
  inhibition at 1 µM: 67%
  inhibition at 3 µM: 76%
GRK2 [2]; 10 uM, PAXF1657 EV, 24 hrs
  % GRK2 degradation at 10 uM in PAXF1657 EV (24 hrs): 76%
GRK2 [2]; 24-hour treatment in PAXF1657 cells
  GRK2 degradation, dose dependence (FIGS. 1A-1D): Dose dependent
PAXF1657 EV
  IC50: 1 to 10 µM
PAXF1657 KO Clone #4
  IC50: > 10 µM
